In ChEMBL document CHEMBL4393739, “Design, synthesis and anti-inflammatory evaluation of novel pyrrolo[2,3-d]pyrimidin derivatives as potent JAK inhibitors” (Bioorg Med Chem, 2019):
Calls of active or inactive are those of the source. The rule behind the calls is not given here.

Tests used:
[1] = biological target: Tyrosine-protein kinase JAK1 (Homo sapiens) (UniProt P23458); details: at 10 µM
[2] = Solubility of the compound; format: physicochemical
RAW264.7 [3] = experiment: Cytotoxicity against mouse RAW264.7 cells assessed as cell growth inhibition measured after 24 hrs by MTT assay; format: cell-based; details: for IC50: Mus musculus, RAW264.7, 24 h; for Activity: mouse, raw264.7, 24 h
RAW264.7 [4] = experiment: Antiinflammatory activity in LPS-induced mouse RAW264.7 cells assessed as protection against cell damage by measuring reduction in apoptotic body formation at 10 ug/ml cotreated with LPS measured after 18 hrs by light microscopy; format: functional, cell-based
RAW264.7 [5] = experiment: Antiinflammatory activity in mouse RAW264.7 cells assessed as reduction in LPS-induced JAK1 expression by Western blot analysis; format: functional, cell-based
RAW264.7 [6] = experiment: Antiinflammatory activity in mouse RAW264.7 cells assessed as reduction in LPS-induced JAK2 expression by Western blot analysis; format: functional, cell-based
RAW264.7 [7] = experiment: Antiinflammatory activity in mouse RAW264.7 cells assessed as reduction in LPS-induced upregulation of IL-1 beta expression by Western blot analysis; format: functional, cell-based
RAW264.7 [8] = experiment: Antiinflammatory activity in LPS-induced mouse RAW264.7 cells assessed as reduction in NO generation by measuring NO level at 2.5 ug/ml measured after 18 hrs by Griess method; format: functional, cell-based
RAW264.7 [9] = experiment: Antiinflammatory activity in LPS-induced mouse RAW264.7 cells assessed as reduction in NO generation by measuring NO level at 5 ug/ml measured after 18 hrs by Griess method; format: functional, cell-based
RAW264.7 [10] = experiment: Antiinflammatory activity in LPS-induced mouse RAW264.7 cells assessed as reduction in NO generation by measuring NO level at 10 ug/ml measured after 18 hrs by Griess method; format: functional, cell-based
RAW264.7 [11] = experiment: Antiinflammatory activity in LPS-induced mouse RAW264.7 cells assessed as protection against cell damage by measuring reduction in cell shrinking at 10 ug/ml cotreated with LPS measured after 18 hrs by light microscopy; format: functional, cell-based
RAW264.7 [12] = experiment: Antiinflammatory activity in LPS-induced mouse RAW264.7 cells assessed as protection against cell damage by measuring reduction in cell rounding at 10 ug/ml co-treated with LPS measured after 18 hrs by light microscopy; format: functional, cell-based

Sequence of Tyrosine-protein kinase JAK1 (Homo sapiens) (P23458 whole entry): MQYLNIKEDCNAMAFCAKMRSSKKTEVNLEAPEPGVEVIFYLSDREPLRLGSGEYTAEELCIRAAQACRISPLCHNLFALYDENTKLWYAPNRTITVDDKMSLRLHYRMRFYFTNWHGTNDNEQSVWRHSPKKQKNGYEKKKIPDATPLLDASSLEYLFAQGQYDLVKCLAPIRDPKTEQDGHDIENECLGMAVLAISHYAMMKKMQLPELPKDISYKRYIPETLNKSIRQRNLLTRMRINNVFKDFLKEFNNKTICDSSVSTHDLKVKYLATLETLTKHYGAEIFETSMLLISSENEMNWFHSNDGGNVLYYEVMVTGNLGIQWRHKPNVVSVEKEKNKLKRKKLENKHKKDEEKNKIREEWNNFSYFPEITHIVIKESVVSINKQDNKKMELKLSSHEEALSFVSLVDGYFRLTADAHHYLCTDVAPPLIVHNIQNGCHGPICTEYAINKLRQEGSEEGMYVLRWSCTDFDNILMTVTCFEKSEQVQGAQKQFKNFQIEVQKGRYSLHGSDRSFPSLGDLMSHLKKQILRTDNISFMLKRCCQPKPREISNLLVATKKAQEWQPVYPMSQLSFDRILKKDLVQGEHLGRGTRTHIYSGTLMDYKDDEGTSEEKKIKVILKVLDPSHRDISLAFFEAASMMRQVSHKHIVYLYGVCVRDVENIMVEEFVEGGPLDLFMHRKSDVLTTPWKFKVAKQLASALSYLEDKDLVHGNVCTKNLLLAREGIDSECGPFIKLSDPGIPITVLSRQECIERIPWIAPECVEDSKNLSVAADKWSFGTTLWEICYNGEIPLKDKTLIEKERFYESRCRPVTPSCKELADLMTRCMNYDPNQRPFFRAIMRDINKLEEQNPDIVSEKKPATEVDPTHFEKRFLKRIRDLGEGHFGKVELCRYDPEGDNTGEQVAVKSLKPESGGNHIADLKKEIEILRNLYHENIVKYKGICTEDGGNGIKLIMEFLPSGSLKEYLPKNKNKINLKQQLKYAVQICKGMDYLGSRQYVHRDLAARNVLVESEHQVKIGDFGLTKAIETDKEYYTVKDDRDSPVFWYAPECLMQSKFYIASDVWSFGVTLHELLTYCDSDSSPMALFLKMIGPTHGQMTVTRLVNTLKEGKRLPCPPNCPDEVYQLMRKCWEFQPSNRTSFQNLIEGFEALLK

inhibition [1] [%]	solubility [2]	Structure (SMILES)	also measured
83		O=C(CN1CCN(CCO)CC1)N1CCC(n2cc(-c3ncnc4[nH]ccc34)cn2)CC1	
2.7	Insoluble	O=S(=O)(c1ccccc1)N1CCC(n2cc(-c3ncnc4[nH]ccc34)cn2)CC1	
59.4	Insoluble	O=S(=O)(C1CC1)N1CCC(n2cc(-c3ncnc4[nH]ccc34)cn2)CC1	
99.6	Insoluble	O=[N+]([O-])c1ccc(S(=O)(=O)N2CCC(n3cc(-c4ncnc5[nH]ccc45)cn3)CC2)cc1	
69.6		O=C(CN1CCOCC1)N1CCC(n2cc(-c3ncnc4[nH]ccc34)cn2)CC1	
90.3		CC1CCN(CC(=O)N2CCC(n3cc(-c4ncnc5[nH]ccc45)cn3)CC2)CC1	IC50 (RAW264.7 [3]): 88.2 µM; Activity (RAW264.7 [3]): Dose-dependent effect; Activity (RAW264.7 [4]): Active; Activity (RAW264.7 [5]): Dose-dependent effect; Activity (RAW264.7 [6]): Dose-dependent effect; Activity (RAW264.7 [7]): Active; Activity (RAW264.7 [8]): Active; Activity (RAW264.7 [9]): Active; Activity (RAW264.7 [10]): Active; Activity (RAW264.7 [11]): Active; Activity (RAW264.7 [12]): Active
38.6		CCN(CC)CC(=O)N1CCC(n2cc(-c3ncnc4[nH]ccc34)cn2)CC1	
92.4	Insoluble	Cc1ccc(S(=O)(=O)N2CCC(n3cc(-c4ncnc5[nH]ccc45)cn3)CC2)cc1	
93.6	Insoluble	O=S(=O)(c1cc(F)cc(F)c1)N1CCC(n2cc(-c3ncnc4[nH]ccc34)cn2)CC1	
72.8		CN1CCN(CC(=O)N2CCC(n3cc(-c4ncnc5[nH]ccc45)cn3)CC2)CC1	
93.4	Insoluble	O=S(=O)(c1ccc(F)cc1)N1CCC(n2cc(-c3ncnc4[nH]ccc34)cn2)CC1	
72.5	Insoluble	N#Cc1ccc(S(=O)(=O)N2CCC(n3cc(-c4ncnc5[nH]ccc45)cn3)CC2)cc1	
46.9		CN(C)CC(=O)N1CCC(n2cc(-c3ncnc4[nH]ccc34)cn2)CC1	
65.6		O=C(CN1CCCCC1)N1CCC(n2cc(-c3ncnc4[nH]ccc34)cn2)CC1	
92.5		O=C(O)C1CCN(CC(=O)N2CCC(n3cc(-c4ncnc5[nH]ccc45)cn3)CC2)CC1	IC50 (RAW264.7 [3]): 80.9 µM; Activity (RAW264.7 [3]): Dose-dependent effect; Activity (RAW264.7 [4]): Active; Activity (RAW264.7 [5]): Dose-dependent effect; Activity (RAW264.7 [6]): Dose-dependent effect; Activity (RAW264.7 [7]): Active; Activity (RAW264.7 [11]): Active; Activity (RAW264.7 [12]): Active
63.7	Insoluble	O=S(=O)(c1ccc(Cl)cc1)N1CCC(n2cc(-c3ncnc4[nH]ccc34)cn2)CC1	
94.7	Insoluble	Cc1ccccc1S(=O)(=O)N1CCC(n2cc(-c3ncnc4[nH]ccc34)cn2)CC1	
95.2	Insoluble	CCS(=O)(=O)N1CCC(n2cc(-c3ncnc4[nH]ccc34)cn2)CC1	
96.6	Insoluble	O=[N+]([O-])c1ccccc1S(=O)(=O)N1CCC(n2cc(-c3ncnc4[nH]ccc34)cn2)CC1	Activity (RAW264.7 [8]): Active; Activity (RAW264.7 [9]): Active; Activity (RAW264.7 [10]): Active
53.2	Insoluble	COc1ccc(S(=O)(=O)N2CCC(n3cc(-c4ncnc5[nH]ccc45)cn3)CC2)cc1	
60.3	Insoluble	O=S(=O)(c1ccc(Br)cc1)N1CCC(n2cc(-c3ncnc4[nH]ccc34)cn2)CC1	
		CCS(=O)(=O)N1CC(CC#N)(n2cc(-c3ncnc4[nH]ccc34)cn2)C1	Activity (RAW264.7 [8]): Active; Activity (RAW264.7 [9]): Active; Activity (RAW264.7 [10]): Active
22.1	Insoluble	CS(=O)(=O)N1CCC(n2cc(-c3ncnc4[nH]ccc34)cn2)CC1	
72.8	Insoluble	O=S(=O)(c1cccc(Br)c1)N1CCC(n2cc(-c3ncnc4[nH]ccc34)cn2)CC1	
55.1		O=C(CN1CCCC1)N1CCC(n2cc(-c3ncnc4[nH]ccc34)cn2)CC1	
92.4	Insoluble	O=[N+]([O-])c1cccc(S(=O)(=O)N2CCC(n3cc(-c4ncnc5[nH]ccc45)cn3)CC2)c1	
